The nature of series [1]: ECL spectra (CCD camera and spectrometer). Format: physicochemical. Further details: wavelength centered emission: unit not given here. The following applies: for ECL maximum: pH 8.5 sodium phosphate buffer. As to the method:
(§1) Fluorescence and ECL spectra were recorded using a charge-coupled device (CCD) camera and spectrometer (1 mm entrance slit) interfaced to a Dell System 200 personal computer (Austin, Tex.) as previously described. The same procedures (spectral calibration etc.) were followed except that different pulse sequences were used and the CCD detector was maintained at −110° C. for the TPrA/THCOOH and TPrA/DPAS experiments and −100° C. for the S2O8^2−/DPAS experiments. Excitation for the fluorescence spectra was achieved by holding a longwave (366 nm) UV lamp (UVP, Inc., San Gabriel, Calif.; model UVGL-25; sold by Fisher Scientific, Pittsburgh, Pa.) next to the cell and at right angles to the entrance slit of the spectrometer.
The DPAS/TPrA ECL spectrum and emission vs. potential scans utilized a 6×9 mm Pt gauze flag (52 mesh gauze; Aldrich) working electrode, an AgQRE and a round (9 mm diameter, 0.5 mm thick) Au foil counter electrode. The 2-THCOOH ECL spectrum also utilized this arrangement. The gauze working electrode was cleaned prior to each experiment by immersion in concentrated nitric acid followed by rinsing in distilled water and heating in a bunsen burner flame.
The DPAS/S2O8^2− ECL spectrum and emission vs. potential scan utilized a 2.0 mm diameter Pt disk working electrode sealed in glass in combination with a Pt wire counter electrode and AgQRE.

Series [2] is described as follows: Fluorescence spectra (CCD camera, 366 nm UV excitation). Type of series: physicochemical. The following applies: for fluorescence maximum: pH 8.5 sodium phosphate buffer. On the procedure: as §1
A short description of series [3]: Cyclic voltammetry / standard potentials. Format: physicochemical. On the procedure: Cyclic voltammetry without photon detection was obtained by using either a BAS 100A Electrochemical Analyzer (Bioanalytical Systems, West Lafayette, Ind.) or a Princeton Applied Research (PAR) model 173/175 potentiostat/universal programmer (Princeton, N.J.) and Omnigraphic 20000 X-Y recorder (Bausch and Lomb-Houston Instrument Division, Austin, Tex.). Cyclic voltammograms with simultaneous photon detection were recorded using the PAR 173/175 in conjunction with a Hamamatsu C1230 photon counter (Bridgewater, N.J.) equipped with a Hamamatsu R928-P photomultiplier tube. The photomultiplier tube was housed in a water jacketed Products For Research, Inc. model TE308TSRF refrigerated chamber maintained at −10° C. Primary cooling of the water jacket to 10° C. was accomplished using an MGW Lauda model RMS6 refrigeration unit (sold by Brinkmann Instruments Co., Westbury, N.Y.). For plots of ECL intensity vs. potential, the output from the photon counter was fed into the Y-axis of the X-Y recorder during potential scans.
Except where noted, all electrochemical and ECL experiments utilized a conventional 3-electrode cell configuration. Pt disk working electrodes were polished on a felt pad (Buehler, Ltd., Lake Bluff, Ill.) before each experiment run with 0.05 μm alumina (Buehler, Ltd.) suspended in water.
For cyclic voltammetry runs without photon detection, the CPZ embodiment utilized a highly-oriented pyrolytic graphite (HOPG; Union Carbide, Cleveland, Ohio) working electrode (6 mm dia. disk with freshly exposed material for each experiment), Pt wire counter electrode and Ag quasi-reference electrode (AgQRE) in a recently describe configuration. See Xu, X.; Bard, A. J. Langmuir, 1994, 10, 2409. Similar runs for all other compounds utilized a 1.5 mm diameter Pt disk working electrode sealed in glass in combination with a Pt wire counter electrode and AgQRE.
Nonaqueous potential referencing to ferrocene was accomplished by adding the standard directly to the solutions. […]

On the set-up of series [4]: peak emission: unit not given here. The conditions noted are these: cited from earlier work; for fluorescence efficiency φF: aqueous media.
Series [5] is described as follows: Maximum solubility of aqueous DPAS in sodium phosphate buffer. Format: physicochemical. The following applies: 0.15 M sodium phosphate buffer (pH 7.5). From the text: The maximum solubility of aqueous DPAS in 0.15 M sodium phosphate buffer (pH 7.5) is approximately 1×10^−5 M. At this low concentration, no anodic current can be observed for DPAS above the background oxidation of water as shown in FIG. 1. However, if 1×10^−5 M DPAS is oxidized in the presence of 0.15 M TPrA, an emission that coincides with an oxidation wave occurs that is superimposed on the TPrA oxidation and background oxidation of water as shown in FIGS. 2a-2b. The fact that an oxidation current is observed for 1×10^−5 M DPAS only in the presence of TPrA implicates a catalytic current enhancement due to the regeneration of DPAS via reduction of DPAS^+ by TPrA or an intermediate. For this catalysis, the cyclic sequence of reactions is analogous to equation schemes (5), (6a), (7), (8) or (10) and (11), and (9) above where Ru(bpy)3^3+/2+/+ is replaced by DPAS^+/0/− respectively, XY^z is TPrA, X^x is Pr2NCH.Et and Y^y is H^+. Despite the low DPAS concentration, 1×10^−5 M, this emission is visibly blue when viewed in a dark room and no emission is observed in the absence of either TPrA or DPAS.

The conditions of series [6]: non-aqueous ion annihilation scheme; cited from earlier work.

The structures appear in SMILES notation. Read-outs that look alike come from different tables or passages of the source.

For `O=C(O)c1cccc2c1Sc1ccccc1S2` [1-THCOOH, 1-thianthrenecarboxylic acid], in series [1] (0.15 M TPrA), the ECL maximum was found to be 570 nm. Besides, in series [2] (0.15 M TPrA), the fluorescence maximum is on record as 505 nm.

Consider `O=C(O)c1ccc2c(c1)Sc1ccccc1S2` [2-THCOOH, 2-thianthrenecarboxylic acid], for which the ECL maximum in series [1] (0.15 M TPrA) came to 570 nm. The compound further yielded a fluorescence maximum in series [2] (0.15 M TPrA) of 480 nm. Also, the oxidation potential result in series [3] (aqueous solution, pH 8.5 sodium phosphate buffer, Pt electrode, vs SCE) is listed as “~+1.0 V”.

What is called solubility is the dissolved amount per volume that the medium holds. Take `O=S(=O)([O-])c1ccc2c(-c3ccccc3)c3ccccc3c(-c3ccccc3)c2c1.[Na+]` [DPAS, sodium 9,10-diphenylanthracene-2-sulfonate]: the “ECL peak intensity wavelength” value in series [1] (1.1 mM DPAS, 25 mM (NH4)2S2O8, MeCN-water 1:1, reduction at −2.2 V vs SCE) was 430 nm; in series [1] (1×10^−5 M DPAS, 0.15 M TPrA, pH 7.5 sodium phosphate buffer, oxidation), 430 nm. The wavelength centered emission in series [1] (emission spectra of FIG. 19) was found to be 430. Further, the “fluorescence efficiency φF” value in series [4] is reported as 0.87. Also, the peak emission in series [4] (fluorescence) is given as 428. In series [2], the “singlet excited state energy Es” value worked out at 2.9 eV. The “fluorescence peak intensity wavelength” value was determined as 430 nm in series [2] (1.1 mM DPAS, 25 mM (NH4)2S2O8, MeCN-water 1:1) and 430 nm in series [2] (1×10^−5 M DPAS, 0.15 M TPrA, pH 7.5 sodium phosphate buffer). In series [5], this compound returned a solubility of around 10 µM. Besides, in series [3] (oxidation), the “E° of DPAS+/DPAS” value was “≈ +1.3 V vs SCE”. In addition, in series [3] (reduction), the “E° of DPAS/DPAS−” value was “≈ −1.9 V vs SCE”.

Take `[Ru+2].c1ccc(-c2ccccn2)nc1.c1ccc(-c2ccccn2)nc1.c1ccc(-c2ccccn2)nc1` [Ru(bpy)3^2+, tris (2,2-bipyridine)ruthenium(II), reference compound]: in series [4], the “fluorescence efficiency φF” value is listed as “about 0.05”.

Turning to `c1ccc2c(c1)Sc1ccccc1S2` [thianthrene, reference compound], the “emission maximum of fluorescence” value in series [4] (in MeCN) was 434 nm. In series [6], the “ECL peak intensity wavelength” value is recorded as 434 nm.

The record behind these values is patent publication US6479233B1, “Electrogenerated chemiluminescence labels for analysis and/or referencing” (IGEN International, Inc., priority 1994, dated 2002).
